US8901118B2, “Compounds and methods for kinase modulation, and indications therefor” (Plexxikon Inc., priority 2010, dated 2014)

Tests used:
[1] = molecular target: c-Kit kinase (Homo sapiens, UniProt P10721); assay: c-Kit kinase biochemical activity assay (AlphaScreen, biotin-(E4Y)10 phosphorylation); conditions: 100 μM ATP; read-out: Biochemical Inhibition IC50 Kit
In short: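 Phosphorylation of 30 nM biotin-(E4Y)10 by c-Kit (0.75 ng per reaction) with 100 µM ATP in HEPES pH 7.5 buffer with Mg2+/Mn2+, 5% DMSO, 1 h at room temperature; 8-point 1:2 compound dilutions. AlphaScreen detection with streptavidin donor and PY20 acceptor beads after EDTA stop. IC50 from signal versus concentration.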

[2] = molecular target: T1, Flt-3 kinase (Homo sapiens, UniProt P36888); assay: Flt-3 kinase biochemical activity assay (AlphaScreen); conditions: 100 μM ATP; read-out: Biochemical Inhibition IC50 Flt3
T1 sequence (P36888 27-993): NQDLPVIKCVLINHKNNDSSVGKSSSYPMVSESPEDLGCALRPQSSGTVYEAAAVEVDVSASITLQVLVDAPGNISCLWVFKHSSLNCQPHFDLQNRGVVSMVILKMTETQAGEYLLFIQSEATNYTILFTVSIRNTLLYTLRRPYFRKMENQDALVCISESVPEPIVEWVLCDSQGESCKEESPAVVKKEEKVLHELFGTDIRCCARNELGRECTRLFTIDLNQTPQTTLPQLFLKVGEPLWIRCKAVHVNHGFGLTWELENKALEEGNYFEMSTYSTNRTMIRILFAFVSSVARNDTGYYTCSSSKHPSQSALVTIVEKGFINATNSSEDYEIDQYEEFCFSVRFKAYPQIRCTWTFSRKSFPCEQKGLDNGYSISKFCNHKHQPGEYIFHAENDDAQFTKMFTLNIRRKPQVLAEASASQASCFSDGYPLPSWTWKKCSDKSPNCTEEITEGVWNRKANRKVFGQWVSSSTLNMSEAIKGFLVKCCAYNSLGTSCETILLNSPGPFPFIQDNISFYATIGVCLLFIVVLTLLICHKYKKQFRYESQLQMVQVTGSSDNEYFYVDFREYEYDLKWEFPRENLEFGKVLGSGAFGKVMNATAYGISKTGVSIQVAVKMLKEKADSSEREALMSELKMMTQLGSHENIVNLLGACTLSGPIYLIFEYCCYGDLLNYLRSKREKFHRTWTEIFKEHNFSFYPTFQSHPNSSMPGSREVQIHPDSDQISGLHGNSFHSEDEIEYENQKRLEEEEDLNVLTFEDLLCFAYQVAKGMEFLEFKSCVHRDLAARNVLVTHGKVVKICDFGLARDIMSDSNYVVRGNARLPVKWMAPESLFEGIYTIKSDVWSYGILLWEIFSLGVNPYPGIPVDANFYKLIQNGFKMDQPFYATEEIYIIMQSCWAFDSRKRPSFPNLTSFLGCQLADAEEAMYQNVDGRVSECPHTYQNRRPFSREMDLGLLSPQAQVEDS
Experimental: In one assay the biochemical activity IC50 values are determined with respect to inhibition of Flt-3 kinase activity, where inhibition of phosphorylation of a peptide substrate is measured as a function of compound concentration. Compounds to be tested, dissolved in DMSO (1 μL), are added to a white 384-well plate (Costar #3705). Working stocks of Flt-3 kinase (Invitrogen), biotin-(E4Y)10 substrate (Upstate Biotech, Cat#12-440), and ATP (Sigma, Cat#A-3377) are prepared in 25 mM Hepes pH 7.5, 5 mM MgCl2, 5 mM MnCl2, 1 mM DTT, and 0.01% Tween-20. All components are added to the 384-well plate for a final concentration of 1 ng/well Flt-3, 30 nM biotin-(E4Y)10 and 100 μM ATP in a volume of 20 μL. Each sample is at 5% DMSO. The plate is then incubated for 1 hour at room temperature. Just before use, working stocks of donor and acceptor beads from the AlphaScreen PY20 Detection Kit (PerkinElmer, Cat#676601M) are prepared in 25 mM Hepes pH 7.5, pH 7.4, 100 mM EDTA. 0.3% BSA. To stop the reaction, the plate is uncovered in the dark and 5 μL of Donor Beads solution (Streptavidin beads) is added to each well. The plate is incubated at room temperature for 20 minutes. Five microliters of Acceptor Beads solution (PY20 coated beads) are then added to each well. The final concentration of each bead is 10 μg/mL. The plates are incubated at room temperature for 60 minutes. Fluorescence signal is recorded on the Envision reader. Phosphorylated substrate results in binding of the PY20 antibody and association of the donor and acceptor beads such that signal correlates with kinase activity. The signal vs. compound concentration is used to determine the IC50.

c-Kit kinase, sequence (P10721 26-976): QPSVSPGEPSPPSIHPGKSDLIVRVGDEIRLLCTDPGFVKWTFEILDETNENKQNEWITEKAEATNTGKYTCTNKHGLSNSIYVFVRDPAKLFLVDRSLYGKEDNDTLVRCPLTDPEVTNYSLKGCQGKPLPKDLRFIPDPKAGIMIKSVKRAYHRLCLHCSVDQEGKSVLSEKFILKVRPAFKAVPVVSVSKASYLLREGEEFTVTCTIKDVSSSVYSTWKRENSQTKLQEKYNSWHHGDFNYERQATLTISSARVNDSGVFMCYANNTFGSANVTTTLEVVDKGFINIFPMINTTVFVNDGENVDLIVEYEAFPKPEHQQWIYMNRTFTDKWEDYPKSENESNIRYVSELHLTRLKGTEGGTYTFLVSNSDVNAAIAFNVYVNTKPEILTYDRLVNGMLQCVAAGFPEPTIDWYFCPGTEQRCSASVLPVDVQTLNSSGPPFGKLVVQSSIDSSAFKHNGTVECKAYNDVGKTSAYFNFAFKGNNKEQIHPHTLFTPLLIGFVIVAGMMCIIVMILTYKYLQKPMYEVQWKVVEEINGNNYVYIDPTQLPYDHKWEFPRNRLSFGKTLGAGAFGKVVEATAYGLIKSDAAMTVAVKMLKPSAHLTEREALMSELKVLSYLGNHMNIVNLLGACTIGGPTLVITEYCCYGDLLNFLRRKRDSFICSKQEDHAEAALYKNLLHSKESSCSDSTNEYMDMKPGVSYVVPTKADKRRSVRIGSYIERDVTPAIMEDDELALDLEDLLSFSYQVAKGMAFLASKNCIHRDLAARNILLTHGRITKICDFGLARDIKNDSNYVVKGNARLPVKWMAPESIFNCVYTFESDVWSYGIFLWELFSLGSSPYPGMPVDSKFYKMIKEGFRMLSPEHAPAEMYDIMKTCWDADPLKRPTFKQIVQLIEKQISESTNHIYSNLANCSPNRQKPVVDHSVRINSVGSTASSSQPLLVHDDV

Compound	IC50 [1] [µM]	IC50 [2] [µM]
FC1(F)CCC(Nc2ncc(Cc3c[nH]c4ncc(Cl)cc34)cn2)CC1 [Compound P-3004]	< 1	> 1
Cc1cnc2[nH]cc(Cc3cnc(Nc4ccc(C(F)(F)F)nc4)nc3)c2c1 [Compound P-3018, [5-(5-Methyl-1H-pyrrolo[2,3-b]pyridin-3-ylmethyl)-pyrimidin-2-yl]-(6-trifluoromethyl-pyridin-3-yl)-amine]	< 0.01	< 0.01
COc1ccc(Nc2ncc(Cc3c[nH]c4ncc(C)cc34)cn2)cn1 [Compound P-3020, (6-Methoxy-pyridin-3-yl)-[5-(5-methyl-1H-pyrrolo[2,3-b]pyridin-3-ylmethyl)-pyrimidin-2-yl]-amine]	< 0.01	< 0.01
COc1ccc(Nc2ncc(Cc3c[nH]c4ncc(C)cc34)cn2)cc1 [Compound P-3021, (4-Methoxy-phenyl)-[5-(5-methyl-1H-pyrrolo[2,3-b]pyridin-3-ylmethyl)-pyrimidin-2-yl]-amine]	< 0.01	< 0.01
COc1cc(Nc2ncc(Cc3c[nH]c4ncc(C)cc34)cn2)ccc1F [Compound P-3022, (4-Fluoro-3-methoxy-phenyl)-[5-(5-methyl-1H-pyrrolo[2,3-b]pyridin-3-ylmethyl)-pyrimidin-2-yl]-amine]	< 0.1	< 0.1
CCCOc1ccc(Nc2ncc(Cc3c[nH]c4ncc(C)cc34)cn2)cc1 [Compound P-3024, [5-(5-Methyl-1H-pyrrolo[2,3-b]pyridin-3-ylmethyl)-pyrimidin-2-yl]-(4-propoxy-phenyl)-amine]	< 0.01	< 0.01
CCn1ccc(Nc2ncc(Cc3c[nH]c4ncc(C)cc34)cn2)n1 [Compound P-3035, (1-Ethyl-1H-pyrazol-3-yl)-[5-(5-methyl-1H-pyrrolo[2,3-b]pyridin-3-ylmethyl)-pyrimidin-2-yl]-amine]	< 0.1	< 0.1
CCn1cc(Nc2ncc(Cc3c[nH]c4ncc(C)cc34)cn2)cn1 [Compound P-3036, (1-Ethyl-1H-pyrazol-4-yl)-[5-(5-methyl-1H-pyrrolo[2,3-b]pyridin-3-ylmethyl)-pyrimidin-2-yl]-amine]	< 0.1	< 0.1
CCOc1ccc(Nc2ccc(Cc3c[nH]c4ncc(C)cc34)c(F)n2)cn1 [Compound P-3039, (6-ethoxy-pyridin-3-yl)-[6-fluoro-5-(5-methyl-1H-pyrrolo[2,3-b]pyridin-3-ylmethyl)-pyridin-2-yl]-amine]	< 0.1	< 0.1
COc1ccc(Nc2ccc(C(=O)c3c[nH]c4ncc(C)cc34)c(F)n2)cn1 [Compound P-3040, [2-Fluoro-6-(6-methoxy-pyridin-3-ylamino)-pyridin-3-yl]-(5-methyl-1H-pyrrolo[2,3-b]pyridin-3-yl)-methanone]	> 1	< 0.1
Cc1ccc(Nc2ccc(Cc3c[nH]c4ncc(Cl)cc34)c(F)n2)cn1 [Compound P-3042, [5-(5-Chloro-1H-pyrrolo[2,3-b]pyridin-3-ylmethyl)-6-fluoro-pyridin-2-yl]-(6-methyl-pyridin-3-yl)-amine]	< 0.1	< 1
Cc1cnc2[nH]cc(C(=O)c3ccc(Nc4ccc(C)nc4)nc3F)c2c1 [Compound P-3043, [2-Fluoro-6-(6-methyl-pyridin-3-ylamino)-pyridin-3-yl]-(5-methyl-1H-pyrrolo[2,3-b]pyridin-3-yl)-methanone]	< 1	< 1
COc1ccc(Nc2ccc(Cc3c[nH]c4ncnc(OC)c34)c(F)n2)cn1 [Compound P-4001, [6-Fluoro-5-(4-methoxy-7H-pyrrolo[2,3-d]pyrimidin-5-ylmethyl)-pyridin-2-yl]-(6-methoxy-pyridin-3-yl)-amine]	< 1	< 1

Continued, values first:

IC50 [1] [µM]	IC50 [2] [µM]	Compound
< 0.1	< 0.1	COc1ccccc1Nc1ncc(Cc2c[nH]c3ncc(Cl)cc23)cn1 [Compound P-3016, [5-(5-Chloro-1H-pyrrolo[2,3-b]pyridin-3-ylmethyl)-pyrimidin-2-yl]-(2-methoxy-phenyl)-amine]
< 1	< 0.1	Fc1cccc(Nc2ncc(Cc3c[nH]c4ncc(Cl)cc34)cn2)c1 [Compound P-3017, [5-(5-Chloro-1H-pyrrolo[2,3-b]pyridin-3-ylmethyl)-pyrimidin-2-yl]-(3-fluoro-phenyl)-amine]
< 1	< 1	COc1ccc(Nc2ccc(Cc3c[nH]c4ncc(C)cc34)c(F)n2)cn1 [Compound P-3019, [6-fluoro-5-(5-methyl-1H-pyrrolo[2,3-b]pyridin-3-ylmethyl)-pyridin-2-yl]-(6-methoxy-pyridin-3-yl)-amine]
< 0.01	< 0.01	CCc1ccc(Nc2ncc(Cc3c[nH]c4ncc(C)cc34)cn2)cc1 [Compound P-3025, (4-Ethyl-phenyl)-[5-(5-methyl-1H-pyrrolo[2,3-b]pyridin-3-ylmethyl)-pyrimidin-2-yl]-amine]
< 0.01	< 0.1	CCOc1ccc(Nc2ncc(Cc3c[nH]c4ncc(C)cc34)cn2)cc1 [Compound P-3026, (4-Ethoxy-phenyl)-[5-(5-methyl-1H-pyrrolo[2,3-b]pyridin-3-ylmethyl)-pyrimidin-2-yl]-amine]
< 0.01	< 0.01	CCOc1ccc(Nc2ncc(Cc3c[nH]c4ncc(C)cc34)cn2)cn1 [Compound P-3027, (6-Ethoxy-pyridin-3-yl)-[5-(5-methyl-1H-pyrrolo[2,3-b]pyridin-3-ylmethyl)-pyrimidin-2-yl]-amine]
< 1	< 1	Cc1cnc2[nH]cc(Cc3ccc(Nc4ccc(C)nc4)nc3F)c2c1 [Compound P-3041, [6-Fluoro-5-(5-methyl-1H-pyrrolo[2,3-b]pyridin-3-ylmethyl)-pyridin-2-yl]-(6-methyl-pyridin-3-yl)-amine]
< 1	< 1	Cc1ccc(Nc2ccc(C(=O)c3c[nH]c4ncc(Cl)cc34)c(F)n2)cn1 [Compound P-3044, (5-Chloro-1H-pyrrolo[2,3-b]pyridin-3-yl)-[2-fluoro-6-(6-methyl-pyridin-3-ylamino)-pyridin-3-yl]-methanone]
< 1	< 0.1	CCOc1ccc(Nc2ccc(C(=O)c3c[nH]c4ncc(C)cc34)c(F)n2)cn1 [Compound P-3045, [6-(6-ethoxy-pyridin-3-ylamino)-2-fluoro-pyridin-3-yl]-(5-methyl-1H-pyrrolo[2,3-b]pyridin-3-yl)-methanone]
< 1	< 1	COc1ncnc2[nH]cc(Cc3ccc(Nc4ccc(Cl)nc4)nc3F)c12 [Compound P-4003, (6-Chloro-pyridin-3-yl)-[6-fluoro-5-(4-methoxy-7H-pyrrolo[2,3-d]pyrimidin-5-ylmethyl)-pyridin-2-yl]-amine]
< 0.1	< 0.01	COc1ncnc2[nH]cc(Cc3ccc(Nc4ccc(C5CC5)nc4)nc3F)c12 [Compound P-4004, (6-Cyclopropyl-pyridin-3-yl)-[6-fluoro-5-(4-methoxy-7H-pyrrolo[2,3-d]pyrimidin-5-ylmethyl)-pyridin-2-yl]-amine]
